# From patent US20110263594A1, “NOVEL TRIAZOLO(4,3-A)PYRIDINE DERIVATIVES, PROCESS FOR THE PREPARATION THEREOF, USE THEREOF AS MEDICAMENTS, PHARMACEUTICAL COMPOSITIONS AND NOVEL USE, IN PARTICULAR AS MET INHIBITORS” (SANOFI-AVENTIS, priority 2008, published 2011)
# pIC50: −log10 of the molar value.
# How the values were obtained:
# [1] = biological target: T1, MET (Homo sapiens, UniProt P08581); assay: Test B: inhibition of the autophosphorylation of MET, ELISA technique (pppY1230,1234,1235) in MKN45 cells; format: cell-based; set-up: endogenous in cells; host or cells: MKN45 cells; conditions: 1 h treatment, phosphoMET ELISA
# Experimental: B) Test B: Inhibition of the autophosphorylation of MET; ELISA technique (pppY1230,1234,1235) a) Cell lysates: MKN45 cells are seeded into 96-well plates (cell coat BD polylysine) at 20 000 cells/well in 200 μl in RPMI medium+10% FCS+1% L-glutamine. They are left to adhere for 24 hours in an incubator.
# The cells are treated the day after seeding with the products at 6 concentrations, in duplicate, for 1 h. At least 3 control wells are treated with the same final amount of DMSO.
# Product dilution: Stock at 10 mM in pure DMSO—range from 10 mM to 30 μM with an increment of 3 in pure DMSO—intermediate dilutions to 1/50 in culture medium and then removal of 10 μl added directly to the cells (200 μl): final range of 10 000 to 30 nM.
# At the end of the incubation, the supernatant is carefully removed and rinsing is performed with 200 μl of PBS. Next, 100 μl of lysis buffer are placed directly in the wells on ice and incubated at 4° C. for 30 minutes. Lysis buffer: 10 mM Tris HCl, pH 7.4, 100 mM NaCl, 1 mM EDTA, 1 mM EGTA, 1% Triton X-100, 10% glycerol, 0.1% SDS, 0.5% deoxycholate, 20 mM NaF, 2 mM Na3VO4, 1 mM PMSF and cocktail of antiproteases.
# The 100 μl of lysates are transferred into a V-bottomed polypropylene plate and the ELISA is performed immediately, or the plate is frozen at −80° C.
# 70 μl of kit dilution buffer+30 μL of cell lysate, or 30 μl of lysis buffer for the blanks, are added to each well of the kit plate. Incubation is carried out for 2 h with gentle agitation at ambient temperature.
# The wells are rinsed 4 times with 400 μl of kit washing buffer. Incubation is carried out with 100 μl of anti-phospho MET antibody for 1 hour at ambient temperature.
# The wells are rinsed 4 times with 400 μl of kit washing buffer. Incubation is carried out with 100 μl of anti-rabbit HRP antibody for 30 minutes at ambient temperature (except for the wells of chromogen alone).
# The wells are rinsed 4 times with 400 μl of kit washing buffer. 100 μL of chromogen are introduced and incubation is carried out for 30 minutes in the dark at ambient temperature.
# The reaction is stopped with 100 μl of stop solution. The plate is read without delay at […], 0.1 second on a Wallac Victor plate reader.
# Target sequence in this assay (P08581 25-1390): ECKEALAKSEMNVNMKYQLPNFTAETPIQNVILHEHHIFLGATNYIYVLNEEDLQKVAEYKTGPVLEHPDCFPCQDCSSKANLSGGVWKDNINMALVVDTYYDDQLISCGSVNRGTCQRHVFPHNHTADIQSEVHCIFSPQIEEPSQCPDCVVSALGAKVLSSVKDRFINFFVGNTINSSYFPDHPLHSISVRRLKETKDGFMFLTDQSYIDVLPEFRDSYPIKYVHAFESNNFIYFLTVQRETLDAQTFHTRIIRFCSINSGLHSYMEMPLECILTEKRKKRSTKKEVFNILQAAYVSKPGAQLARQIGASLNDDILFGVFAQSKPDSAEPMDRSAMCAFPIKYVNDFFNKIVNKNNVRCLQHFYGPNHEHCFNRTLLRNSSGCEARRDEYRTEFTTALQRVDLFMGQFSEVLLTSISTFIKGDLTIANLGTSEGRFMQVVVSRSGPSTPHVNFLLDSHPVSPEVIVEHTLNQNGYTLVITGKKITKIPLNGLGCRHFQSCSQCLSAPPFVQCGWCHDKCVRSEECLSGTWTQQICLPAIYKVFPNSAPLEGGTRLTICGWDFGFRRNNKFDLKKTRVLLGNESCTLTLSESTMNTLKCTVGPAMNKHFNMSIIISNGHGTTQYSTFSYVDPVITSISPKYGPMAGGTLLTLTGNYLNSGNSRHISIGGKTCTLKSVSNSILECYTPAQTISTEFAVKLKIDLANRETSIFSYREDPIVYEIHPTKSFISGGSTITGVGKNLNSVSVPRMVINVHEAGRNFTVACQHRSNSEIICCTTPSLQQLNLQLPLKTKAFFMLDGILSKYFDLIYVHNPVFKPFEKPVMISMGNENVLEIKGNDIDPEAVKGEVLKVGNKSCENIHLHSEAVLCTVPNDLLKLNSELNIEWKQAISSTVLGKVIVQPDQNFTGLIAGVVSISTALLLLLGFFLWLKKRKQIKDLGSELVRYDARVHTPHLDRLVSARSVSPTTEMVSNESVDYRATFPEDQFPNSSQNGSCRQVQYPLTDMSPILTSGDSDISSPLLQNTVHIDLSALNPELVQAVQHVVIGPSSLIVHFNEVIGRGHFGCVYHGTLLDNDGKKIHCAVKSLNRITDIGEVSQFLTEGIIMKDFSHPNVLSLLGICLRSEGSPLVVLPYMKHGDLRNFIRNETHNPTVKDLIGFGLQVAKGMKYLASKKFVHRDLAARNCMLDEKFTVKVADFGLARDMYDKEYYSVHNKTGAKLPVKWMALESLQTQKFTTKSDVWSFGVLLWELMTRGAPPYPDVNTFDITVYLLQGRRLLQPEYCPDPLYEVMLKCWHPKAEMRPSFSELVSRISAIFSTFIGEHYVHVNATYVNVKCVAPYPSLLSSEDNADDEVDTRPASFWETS
# [2] = tested on: HCT116 cells and MKN45 cells; assay: Test C: measurement of cell proliferation by 14C-thymidine pulse; format: cell-based; conditions: 14C-thymidine incorporation, 96 h of treatment; cell line not given
# Experimental: The cells are seeded into Cytostar 96-well plates in 180 μl for 4 hours at 37° C. and 5% CO2: HCT116 cells in a proportion of 2500 cells per well in DMEM medium+10% foetal calf serum+1% L-glutamine, and MKN45 cells in a proportion of 7500 cells per well in RPMI medium+10% foetal calf serum+1% L-glutamine. After these 4 hours of incubation, the products are added in 10 μl as a […] concentrated solution according to the dilution method mentioned for the ELISA. The products are tested at 10 concentrations in duplicate from 10 000 nM to 0.3 nM with an increment of 3.
# After treatment for 72 h, 10 μl of ^14C-thymidine at 10 μCi/ml are added so as to obtain 0.1 μCi per well. The ^14C-thymidine incorporation is measured on a Micro-Beta machine (Perkin-Elmer) after 24 hours of pulse and 96 h of treatment.
# All the steps of the assay are automated on BIOMEK 2000 or TECAN stations.
# [3] = biological target: T1, MET; assay: Test A: HTRF MET assay in 96-well format; format: biochemical; set-up: The His-Tev-MET (956-1390) recombinant DNA in pFastBac (Invitrogen) is transfected into insect cells; His-Tev (histidine tag with TEV cleavage site) (N, cleaved yes); made in house; host or cells: SF21 insect cells (baculovirus, pFastBac); conditions: MET 5 nM, 10 μM ATP, poly-(GAT)
# Experimental: The His-Tev-MET (956-1390) recombinant DNA in pFastBac (Invitrogen) is transfected into insect cells and, after several viral amplification steps, the final baculovirus stock is tested for the expression of the protein of interest.
# After infection for 72 h at 27° C. with the recombinant virus, SF21 cell cultures are harvested by centrifugation and the cell pellets are stored at −80° C.
# The cell pellets are resuspended in the lysis buffer (buffer A [50 mM HEPES, pH 7.5, 250 mM NaCl, 10% glycerol, 1 mM TECP]; +cocktail of protease inhibitors, Roche Diagnostics, without EDTA, ref 1873580), stirred at 4° C. until the mixture is homogeneous, and then lysed mechanically using a “Dounce” type apparatus.
# After centrifugation, the lysis supernatant is incubated for 2 h at 4° C. with nickel chelate resin (His-Trap 6 Fast Flow™, GE HealthCare). After washing with 20 volumes of buffer A, the suspension is packed into a column, and the proteins are eluted with a gradient of buffer B (buffer A+290 mM imidazole).
# The fractions containing the protein of interest, for the purpose of electrophoretic analysis (SDS PAGE), are combined, concentrated by ultrafiltration (10 kDa cut-off) and injected onto an exclusion chromatography column (Superdex™ 200, GE HealthCare) equilibrated in buffer A.
# After enzymatic cleavage of the histidine tag, the protein is reinjected onto a new IMAC nickel chelate chromatography column (His-Trap 6 Fast Flow™, GE HealthCare) equilibrated in buffer A. The fractions eluted with a gradient of buffer B and containing the protein of interest after electrophoresis (SDS PAGE) are finally combined and stored at −80° C.
# For the production of autophosphorylated protein, the previous fractions are incubated for 1 h at ambient temperature after the addition of 2 mM ATP, 2 mM MgCl2 and 4 mM Na3VO4. After the reaction has been stopped with 5 mM of EDTA, the reaction mixture is injected onto a HiPrep desalifying column (GE HealthCare) pre-equilibrated in buffer A+4 mM Na3VO4, and the fractions containing the protein of interest (SDS PAGE analysis) are combined and stored at −80° C. The degree of phosphorylation is verified by mass spectrometry (LC-MS) and by peptide mapping.
# MET at a final concentration of 5 nM is incubated in a final volume of 50 μl of enzymatic reaction in the presence of the test molecule (for a final concentration range of from 0.17 nM to 10 μM, 3% DMSO final concentration) in 10 mM MOPS buffer, pH 7.4, 1 mM DTT, 0.01% Tween 20. The reaction is initiated with the substrate solution to obtain final concentrations of 1 μg/ml poly-(GAT), 10 μM ATP and 5 mM MgCl2. After incubation for 10 min at ambient temperature, the reaction is stopped with a 30 μl mix so as to obtain a final solution of 50 mM Hepes, pH 7.5, 500 mM potassium fluoride, 0.1% BSA and 133 mM EDTA in the presence of 80 ng of streptavidin 61SAXLB Cis-Bio Int. and 18 ng of anti-phosphotyrosine Mab PT66-Europium Cryptate per well. After incubation for 2 hours at ambient temperature, the reading is taken at 2 wavelengths, 620 nm and 665 nm, on a reader for the TRACE/HTRF technique, and the % inhibition is calculated from the 665/620 ratios.
# Target sequence in this assay (P08581 956-1390): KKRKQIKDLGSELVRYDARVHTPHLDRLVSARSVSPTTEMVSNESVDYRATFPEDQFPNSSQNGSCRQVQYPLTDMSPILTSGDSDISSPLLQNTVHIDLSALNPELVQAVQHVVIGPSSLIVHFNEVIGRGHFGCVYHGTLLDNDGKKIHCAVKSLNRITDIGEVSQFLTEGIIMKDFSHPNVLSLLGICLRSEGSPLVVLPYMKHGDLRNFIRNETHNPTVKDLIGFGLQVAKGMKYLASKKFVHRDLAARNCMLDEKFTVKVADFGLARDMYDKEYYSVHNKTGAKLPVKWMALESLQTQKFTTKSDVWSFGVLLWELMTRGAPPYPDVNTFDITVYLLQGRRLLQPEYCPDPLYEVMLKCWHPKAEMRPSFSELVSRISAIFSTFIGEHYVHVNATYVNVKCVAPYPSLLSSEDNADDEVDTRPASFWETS
SMILES,pIC50 [1],pIC50 [2],pIC50 [3],melting point [°C]
"Nc1nc2ccc(Sc3nnc4ccc(-c5ccc(F)cc5)cn34)cc2s1 [Example 7, 6-{[6-(4-fluorophenyl)[1,2,4]triazolo[4,3-a]pyridin-3-yl]sulphanyl}-1,3-benzothiazol-2-amine]",> 7.00,> 6.00,> 7.00,> 264
"Cc1ccc(-c2ccc3nnc(Sc4ccc5nc(NC(=O)C6CC6)sc5c4)n3c2)cc1F [Example 12, N-(6-{[6-((3-fluoro-4-methyl)phenyl)[1,2,4]triazolo[4,3-a]pyridin-3-yl]sulphanyl}-1,3-benzothiazol-2-yl)cyclopropanecarboxamide]",> 7.00,> 6.00,> 7.00,191
"O=C(Nc1nc2ccc(Sc3nnc4ccc(-c5cccc(F)c5)cn34)cc2s1)C1CC1 [Example 13, N-(6-{[6-(3-fluorophenyl)[1,2,4]triazolo[4,3-a]pyridin-3-yl]sulphanyl}-1,3-benzothiazol-2-yl)cyclopropanecarboxamide]",> 7.00,> 6.00,> 7.00,> 260

# Next, values leading:
pIC50 [1],pIC50 [2],pIC50 [3],melting point [°C],SMILES
> 7.00,> 6.00,> 7.00,180 to 185,"CN1CCN(CCNC(=O)Nc2nc3ccc(Sc4nnc5ccccn45)cc3s2)CC1 [Example 4, 1-[2-(4-methylpiperazin-1-yl)ethyl]-3-[6-([1,2,4]triazolo[4,3-a]pyridin-3-ylsulphanyl)-1,3-benzothiazol-2-yl]urea]"
> 7.00,> 6.00,> 7.00,252 to 257,"COCCNC(=O)Nc1nc2ccc(Sc3nnc4ccccn34)cc2s1 [Example 5, 1-(2-methoxyethyl)-3-[6-([1,2,4]triazolo[4,3-a]pyridin-3-ylsulphanyl)-1,3-benzothiazol-2-yl]urea]"
> 7.00,> 6.00,> 7.00,> 260,"O=C(Nc1nc2ccc(Sc3nnc4ccc(-c5cn[nH]c5)cn34)cc2s1)C1CC1 [Example 11, N-(6-{[6-(1H-pyrazol-4-yl)[1,2,4]triazolo[4,3-a]pyridin-3-yl]-sulphanyl}-1,3-benzothiazol-2-yl)cyclopropanecarboxamide]"
